The source of these data is patent US10442793B2, “Oxa spiro derivative, preparation method therefor, and applications thereof in medicines” (Jiangsu Hengrui Medicine Co., Ltd., priority 2015, dated 2019).

Holding throughout (type): cell-based
One experiment deals with T1, MOR receptor (Homo sapiens, UniProt P35372).
T1 construct: host or cells: CHO-K1
Put plainly: Activation of the β-arrestin signaling pathway of MOR receptor (CHO-K1 OPRM1 β-Arrestin cells, DiscoveRX). The conditions noted are these: for Emax: maximum effect of morphine is 100%. The protocol: The experiment objective is to determine the activity of the compounds of the present invention on activating the β-arrestin signaling pathway of MOR receptor.
The drug was prepared as a 20 mM stock solution that was later diluted with 100% DMSO to a 200×concentration gradient, and then diluted with a 20-fold AssayComplete™ Cell Plating 2 Reagent (93-0563R2B, DiscoveRX) medium. The cell culture plate inoculated on the first day was taken out, and 10 μl of the diluted drug or control (0.5% DMSO) was added to each well. The plate was gently shaken and placed in an incubator at 37° C., 5% CO2 for 90 minutes. Finally, 50 μL of a detection reagent (93-0001, DiscoveRX) were added to each well, and the plate was placed at room temperature for 60 minutes. The absorbance values were measured by the cold light model of a microplate reader (PE, Victor3). The EC50 values of the compounds were calculated by Graphpad Prism software according to each concentration of the compound and the corresponding signal value.

The next experiment has as its target T2, μ-opioid receptors (MOR) (Homo sapiens, UniProt P35372).
T2 construct: host or cells: HEK293
Put plainly: MOR activity test: HEK293/MOR/CRE luciferase reporter, agonizing MOR and affecting downstream cAMP levels. The conditions noted are these: for Emax: HEK293, maximum effect of TRV-130 is 100%, read-out: Emax on agonizing MOR receptor and affecting cAMP levels. An excerpt: The compounds of the present invention can activate μ-opioid receptors (MOR). Activated MOR can regulate intracellular cAMP levels, and cAMP enters the nucleus and binds to the CRE region of the reporter gene luciferase, thereby initiating the expression of the reporter gene. Luciferase can react with its substrate to emit fluorescence, and the measured fluorescence signals reflect the agonistic activity of the compounds.
The activity of the test example compounds on agonizing MOR and affecting downstream cAMP levels was tested by the following method.
MOR/pcDNA3.1 (+) and CRE/pGL4.29 were transferred into HEK293 cells. G418 and hygromycin were added into the culture medium, and HEK293/MOR/CRE monoclonal cell lines were screened in a 96-well cell culture plate.
HEK293/MOR/CRE monoclonal cells were cultured in a DMEM/high glucose medium (10% FBS, 1 mg/ml G418, 200 μg/ml hygromycin, mixed uniformly), and passaged every 3 days. On the day of the experiment, a cell suspension was prepared with a fresh cell medium, added to a 96 well plate (BD, #356692) with 20,000 cells/well, and incubated in 5% CO2 at 37° C. On the second day, the compound was dissolved in pure DMSO at a concentration of 20 mM, then formulated with DMSO to a first concentration of 4 mM and diluted in 10 fold concentration gradient to 6 concentrations. Then, 90 μl of DMSO was added to blank and control wells. Then, formulated compound was prepared by adding 2.5 μl of the compound solutions formulated in DMSO at a gradient concentration to 97.5 μl of a fresh cell culture medium containing 5 μM foscolin. Then, 10 μl of the formulated compound was added to the cell culture plate to make the final concentration of the compound 10000, 1000, 100, 10, 1, 0.1, or 0.01 nM, and the plate was incubated at 37° C., in 5% CO2 for 5 hours. In a 96-well cell culture plate, 100 μl of luciferase assay solution (Promega, # E6110) was added to each well. The plate was placed in the dark at room temperature for 10-15 minutes, blowed and aspirated 10 times, and 100 μl were pipetted to a 96 well white plate. The chemiluminescence signal values were read in a microplate reader (PE, Victor3), and the read data was processed using software.
The activity of the compounds of the present invention on agonizing MOR and affecting downstream cAMP levels was determined by the above test, and the EC50 values are shown in Table 1.1.
(In a reporter assay the amount or activity of a reporter protein is the signal.)

Another experiment has as its target T3, hERG potassium channel (Homo sapiens, UniProt Q12809).
T3 construct: expressed in transfected cells; host or cells: HEK293
Put plainly: Blocking of hERG potassium current, automatic patch clamp on HEK293-hERG cells. The protocol: The blocking effect of the compounds of the present invention and the positive compound TRV-130 (Journal of Pharmacology and Experimental Therapeutics, Volume 344, Issue 3, Pages 708-717, 2013) on hERG potassium current was tested on a stable cell line transfected with hERG potassium channel using an automatic patch clamp.
HEK293-hERG stabilized cells were subcultured at a density of 1:4 in a MEM/EBSS medium (10% FBS, 400 μg/ml G418, 1% MEM nonessential amino acid solution (100×), 1% sodium pyruvate solution) for 48-72 hours, then the automatic patch clamp experiment was performed. The cells were digested with 0.25% trypsin on the day of the experiment, then the cells were collected by centrifugation and resuspended with extracellular fluid (140 mM NaCl, 4 mM KCl, 1 mM MgCl2, 2 mM CaCl2, 5 mM D-glucose monohydrate, 10 mM Hepes, pH 7.4, 298 mOsmol) into a cell suspension. The cell suspension was placed on the cell bank of the Patchliner instrument, and the cells were added to the chip (NPC-16) by the negative pressure controller of the Patchliner instrument, with negative pressure attracting individual cells to the small hole of the chip. After the whole cell model was formed, the instrument generated the hERG current according to the preset hERG current and voltage program, and then the instrument perfused the compound from low concentration to high concentration automatically. HEAK Patchmaster, HEAK EPC10 patch clamp amplifier (Nanion), Pathliner software, and a data analysis software provided by Pathcontrol HTsoftware were used to analyze the current of the compounds at different concentrations and the current of the blank control.
The blocking effect of the compounds of the present invention on hERG potassium current was determined by the above test, and the IC50 values are shown in Table 3.
(hERG is a cardiac potassium channel; its block is linked to QT prolongation.)

The next experiment has as its target T4, DOR receptor (Homo sapiens, UniProt P41143).
T4 construct: expressed in transfected cells; host or cells: HEK293
Put plainly: DOR activity test: HEK293/DOR/CRE luciferase reporter, cAMP levels. The note with it: for Emax: HEK293, maximum effect of morphine is 100%. The protocol:
(§1) The experiment objective is to determine the activity of the compounds of the present invention on agonizing KOR receptor and DOR receptor, and affecting downstream cAMP levels.
(§2) 90 μl of HEK293/KOR/CRE or HEK293/DOR/CRE (CRE cDNA purchased from Promega, product number E8471, KOR cDNA and DOR cDNA were constructed by our company) cells were inoculated in a 96-well plate with a density of 1×10^4 cells/well. Then, the cells were incubated overnight at 37° C., in 5% CO2. The drug was prepared as a 20 mM stock solution that was later diluted with 100% DMSO to a 200×concentration gradient, and then diluted with a 20-fold DMEM/high glucose (SH30243.01B, Hyclone) medium. The cell culture plate inoculated on the first day was taken out, and […] of the diluted drug or control (0.5% DMSO) was added to each well. The plate was gently shaken and placed in a incubator at 37° C., 5% CO2 for 4 hours. Finally, 100 μl of a detection reagent ONE-Glo (E6120, Promega) was added to each well, and the plate was placed at room temperature for 5 minutes. The absorbance value was measured by the cold light model of a microplate reader (PE, Victor3). The EC50 value of the compound was calculated by Graphpad Prism software according to each concentration of the compound and the corresponding signal value. Emax is the maximum effect of the compound on cAMP level changes.
(§3) The activity of the compounds of the present invention on agonizing KOR receptor or DOR receptor and affecting downstream cAMP levels was determined by the above test, and the EC50 values are shown in Table 1.2.

The target in the next experiment is T5, KOR receptor (Homo sapiens, UniProt P41145).
T5 construct: expressed in transfected cells; host or cells: HEK293
Put plainly: KOR activity test: HEK293/KOR/CRE luciferase reporter, cAMP levels. The note with it: for Emax: HEK293, maximum effect of morphine is 100%. How it is done:
as §1, §2, §3

[1] abbreviates: CHO-K1 OPRM1 β-Arrestin cells, 90 minutes, read-out: EC50 on the β-arrestin signaling pathway.
[2] abbreviates: HEK293/MOR/CRE cells, 5 h incubation, forskolin, read-out: EC50 on agonizing MOR receptor and affecting cAMP levels.
Setting [3] is: HEK293-hERG cells, automatic patch clamp, read-out: IC50 on blocking hERG potassium current.
[4] abbreviates: HEK293/DOR/CRE cells, 4 h incubation, read-out: DOR EC50.
Setting [5] is: HEK293/KOR/CRE cells, 4 h incubation, read-out: KOR EC50.

pEC50, pIC50: −log10 of the molar value. Like-named read-outs stand apart in the source and are kept apart here.

T5 sequence (P41145 whole entry): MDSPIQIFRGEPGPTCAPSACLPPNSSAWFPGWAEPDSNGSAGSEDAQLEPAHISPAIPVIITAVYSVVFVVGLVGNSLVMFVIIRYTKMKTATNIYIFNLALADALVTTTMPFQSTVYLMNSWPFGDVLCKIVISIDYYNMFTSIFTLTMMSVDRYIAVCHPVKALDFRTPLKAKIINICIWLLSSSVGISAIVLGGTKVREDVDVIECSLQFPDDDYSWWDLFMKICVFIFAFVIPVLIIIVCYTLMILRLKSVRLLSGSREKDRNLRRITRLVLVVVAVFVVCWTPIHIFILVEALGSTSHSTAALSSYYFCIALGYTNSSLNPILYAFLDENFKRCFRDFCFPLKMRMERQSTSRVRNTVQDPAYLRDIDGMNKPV
T3 sequence (Q12809 whole entry): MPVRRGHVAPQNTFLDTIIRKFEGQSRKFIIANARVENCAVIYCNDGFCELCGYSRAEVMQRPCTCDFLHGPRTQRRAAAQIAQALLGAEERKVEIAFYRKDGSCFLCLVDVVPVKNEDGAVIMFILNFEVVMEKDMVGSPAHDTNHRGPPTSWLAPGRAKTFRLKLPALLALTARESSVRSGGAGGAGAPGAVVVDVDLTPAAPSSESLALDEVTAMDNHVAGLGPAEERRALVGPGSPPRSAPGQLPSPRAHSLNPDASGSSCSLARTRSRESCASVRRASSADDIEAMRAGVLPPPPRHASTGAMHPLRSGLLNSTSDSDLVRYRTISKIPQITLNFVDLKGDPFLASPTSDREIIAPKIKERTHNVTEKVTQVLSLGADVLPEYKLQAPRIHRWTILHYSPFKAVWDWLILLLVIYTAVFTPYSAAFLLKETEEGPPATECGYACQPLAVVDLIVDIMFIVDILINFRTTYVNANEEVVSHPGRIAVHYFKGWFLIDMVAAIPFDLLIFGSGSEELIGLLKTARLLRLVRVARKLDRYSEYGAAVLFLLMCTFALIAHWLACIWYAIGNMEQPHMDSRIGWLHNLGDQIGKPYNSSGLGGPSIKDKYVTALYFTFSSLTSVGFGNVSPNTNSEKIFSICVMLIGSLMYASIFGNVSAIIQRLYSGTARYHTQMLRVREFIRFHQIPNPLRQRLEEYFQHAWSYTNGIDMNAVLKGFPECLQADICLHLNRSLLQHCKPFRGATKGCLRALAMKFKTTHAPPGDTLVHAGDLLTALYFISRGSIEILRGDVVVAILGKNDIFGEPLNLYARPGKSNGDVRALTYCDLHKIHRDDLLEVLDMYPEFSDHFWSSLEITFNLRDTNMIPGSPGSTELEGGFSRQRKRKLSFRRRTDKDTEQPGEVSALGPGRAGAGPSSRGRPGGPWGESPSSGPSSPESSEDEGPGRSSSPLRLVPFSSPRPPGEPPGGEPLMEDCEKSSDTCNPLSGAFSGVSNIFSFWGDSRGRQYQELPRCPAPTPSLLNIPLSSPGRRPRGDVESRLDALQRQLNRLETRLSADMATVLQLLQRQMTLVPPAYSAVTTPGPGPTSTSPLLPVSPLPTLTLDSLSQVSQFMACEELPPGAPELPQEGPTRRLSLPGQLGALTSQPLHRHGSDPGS
T1 sequence (P35372 whole entry): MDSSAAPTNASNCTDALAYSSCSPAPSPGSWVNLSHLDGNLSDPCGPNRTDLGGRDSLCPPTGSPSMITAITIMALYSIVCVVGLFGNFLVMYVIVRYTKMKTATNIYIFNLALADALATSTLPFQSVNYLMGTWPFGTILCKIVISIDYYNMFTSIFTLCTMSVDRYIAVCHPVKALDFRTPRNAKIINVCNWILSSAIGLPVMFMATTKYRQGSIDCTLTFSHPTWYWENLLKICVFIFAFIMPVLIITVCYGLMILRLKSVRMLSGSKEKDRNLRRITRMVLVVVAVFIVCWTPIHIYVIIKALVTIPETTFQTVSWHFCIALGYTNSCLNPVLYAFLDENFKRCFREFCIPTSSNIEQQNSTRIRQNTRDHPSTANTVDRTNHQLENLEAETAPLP
T2 sequence (P35372 whole entry): as above
T4 sequence (P41143 whole entry): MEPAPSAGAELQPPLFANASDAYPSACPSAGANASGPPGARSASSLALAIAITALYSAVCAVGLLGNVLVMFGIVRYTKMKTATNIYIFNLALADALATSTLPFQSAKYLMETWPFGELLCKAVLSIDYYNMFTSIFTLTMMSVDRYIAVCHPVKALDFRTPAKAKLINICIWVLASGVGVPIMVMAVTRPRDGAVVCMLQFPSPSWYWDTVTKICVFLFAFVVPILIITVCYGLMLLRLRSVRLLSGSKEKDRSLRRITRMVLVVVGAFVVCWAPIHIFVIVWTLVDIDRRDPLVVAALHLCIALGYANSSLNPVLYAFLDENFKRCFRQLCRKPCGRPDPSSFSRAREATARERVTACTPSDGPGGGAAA

In general, pEC50 refers to −log10 of the EC50, conventionally taken in molar units. By Emax is commonly meant the maximal effect, on the per cent scale that the assay sets. By pIC50 is commonly meant −log10 of the IC50, conventionally taken in molar units. With `c1ccc([C@]2(CCN[C@H]3CCC4(SCCS4)c4ccccc43)CCOC3(CCCC3)C2)nc1` [Example 24, (S)-N-(2-((R)-9-(pyridin-2-yl)-6-oxaspiro[4.5]decan-9-yl)ethyl)-3′,4′-dihydro-2′H-spiro[[1,3]dithiolane-2,1′-naphthalen]-4′-amine], the negative logarithm of the EC50 (pEC50) at MOR receptor (setting [1]) is 8.22; on μ-opioid receptors (MOR) (setting [2]), 9.10. For the same compound, the Emax at MOR receptor worked out at 30%; at μ-opioid receptors (MOR) it was 102%. In addition, the pIC50 on hERG potassium channel (setting [3]) is 5.60.

In the case of `CCO[C@H]1CC[C@H](NCC[C@@]2(c3ccccn3)CCOC3(CCCC3)C2)c2ccccc21` [Example 19, (1S,4S)-4-ethoxy-N-(2-((R)-9-(pyridin-2-yl)-6-oxaspiro[4.5]decan-9-yl)ethyl)-1,2,3,4-tetrahydronaphthalen-1-amine], the pEC50 on DOR receptor is 6.26; on MOR receptor, 7.62; on KOR receptor, 6.06; on μ-opioid receptors (MOR) it was 8.70. The Emax stood at 108% on DOR receptor, 13% at MOR receptor, 96% on KOR receptor and 98% on μ-opioid receptors (MOR). At hERG potassium channel, the negative-log IC50 (pIC50) is 5.23.

With `c1ccc([C@]2(CCN[C@H]3CC[C@H](OCC4CC4)c4ccccc43)CCOC3(CCCC3)C2)nc1` [Example 20, (1S,4S)-4-(cyclopropylmethoxy)-N-(2-((R)-9-(pyridin-2-yl)-6-oxaspiro[4.5]decan-9-yl)ethyl)-1,2,3,4-tetrahydronaphthalen-1-amine], the negative-log EC50 (pEC50) at DOR receptor (setting [4]) is 5.82; on MOR receptor (setting [1]), 8.40; at KOR receptor (setting [5]) it was 6.15. Also, the maximum response (Emax) on DOR receptor was 118%; on MOR receptor, 9%; on KOR receptor, 103%.

For the compound `FCCO[C@H]1CC[C@H](NCC[C@@]2(c3ccccn3)CCOC3(CCCC3)C2)c2ccccc21` [Example 21, (1S,4S)-4-(2-fluoroethoxy)-N-(2-((R)-9-(pyridin-2-yl)-6-oxaspiro[4.5]decan-9-yl)ethyl)-1,2,3,4-tetrahydronaphthalen-1-amine], the results for the pEC50 on DOR receptor (setting [4]), at KOR receptor (setting [5]) and at μ-opioid receptors (MOR) (setting [2]) were 5.83, 5.93 and 8.30, respectively. In addition, the Emax turned out to be 107% at DOR receptor, 100% on KOR receptor and 110% at μ-opioid receptors (MOR). Also, the pIC50 on hERG potassium channel (setting [3]) is 5.38.

For `O[C@@H]1CC[C@H](NCC[C@@]2(c3ccccn3)CCOC3(CCCC3)C2)c2ccccc21` [Example 13, (1R,4S)-4-((2-((R)-9-(pyridin-2-yl)-6-oxaspiro[4.5]decan-9-yl)ethyl)amino)-1,2,3,4-tetrahydronaphthalen-1-ol], on μ-opioid receptors (MOR), the negative-log EC50 (pEC50) was 8.10 and the Emax is 130%. The pIC50 at hERG potassium channel was 4.87.

Consider `O[C@H]1CC[C@H](NCC[C@@]2(c3ccccn3)CCOC3(CCCC3)C2)c2ccccc21` [Example 12, (1S,4S)-4-((2-((R)-9-(pyridin-2-yl)-6-oxaspiro[4.5]decan-9-yl)ethyl)amino)-1,2,3,4-tetrahydronaphthalen-1-ol], for which, at μ-opioid receptors (MOR), the pEC50 is 8.70 and the maximum response (Emax) is 125%. This compound also had a pIC50 at hERG potassium channel of 4.99.

Turning to `CCN1CC[C@H](NCC[C@@]2(c3ccccn3)CCOC3(CCCC3)C2)c2ccccc21` [Example 1, (S)-1-ethyl-N-(2-((R)-9-(pyridin-2-yl)-6-oxaspiro[4.5]decan-9-yl)ethyl)-1,2,3,4-tetrahydroquinolin-4-amine], the negative-log EC50 (pEC50) at MOR receptor (setting [1]) was 8.40; at μ-opioid receptors (MOR) (setting [2]) it was 8.00. Further, the Emax on MOR receptor amounted to 12%; at μ-opioid receptors (MOR), 102%. Also, the pIC50 on hERG potassium channel (setting [3]) was 4.89.

For `O[C@@H]1Cc2ccccc2[C@H]1NCC[C@@]1(c2ccccn2)CCOC2(CCCC2)C1` [Example 3, (1R,2R)-1-((2-((R)-9-(pyridin-2-yl)-6-oxaspiro[4.5]decan-9-yl)ethyl)amino)-2,3-dihydro-1H-inden-2-ol], at μ-opioid receptors (MOR), the pEC50 is 8.70 and the maximum response (Emax) is 124%. Also, the pIC50 at hERG potassium channel was under 4.52.

As to `c1ccc([C@]2(CCN[C@H]3CCc4ccccc43)CCOC3(CCCC3)C2)nc1` [Example 16, (S)-N-(2-((R)-9-(pyridin-2-yl)-6-oxaspiro[4.5]decan-9-yl)ethyl)-2,3-dihydro-1H-inden-1-amine], on MOR receptor, the negative logarithm of the EC50 (pEC50) is 7.03 and the Emax turned out to be 9%. For the same compound, at μ-opioid receptors (MOR), the negative-log EC50 (pEC50) was 8.05 and the Emax stood at 122%. In addition, the negative-log IC50 (pIC50) against hERG potassium channel is 5.00.

For `c1ccc([C@]2(CCN[C@H]3CCOc4ccccc43)CCOC3(CCCC3)C2)nc1` [Example 6, (S)-N-(2-((R)-9-(pyridin-2-yl)-6-oxaspiro[4.5]decan-9-yl)ethyl)chroman-4-amine], at μ-opioid receptors (MOR), the pEC50 is 9.00 and the Emax was found to be 115%. Besides, the pIC50 on hERG potassium channel was 5.42.
